The source of these data is patent US20240383904A1, “HETEROCYCLIC COMPOUNDS” (Hoffmann-La Roche Inc., priority 2021, published 2024).

pIC50: −log10 of the molar value.

For one assay, the target named is T1, MAGL (Homo sapiens, UniProt Q99685).
T1 sequence (Q99685 1-303): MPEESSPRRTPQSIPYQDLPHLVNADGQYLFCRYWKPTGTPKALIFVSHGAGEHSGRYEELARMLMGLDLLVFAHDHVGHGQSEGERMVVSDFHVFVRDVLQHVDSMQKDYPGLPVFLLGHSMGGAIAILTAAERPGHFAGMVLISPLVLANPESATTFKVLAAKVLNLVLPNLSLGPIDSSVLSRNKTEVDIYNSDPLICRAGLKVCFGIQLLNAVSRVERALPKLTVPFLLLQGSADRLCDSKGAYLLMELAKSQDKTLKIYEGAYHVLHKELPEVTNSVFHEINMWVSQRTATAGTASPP
Nature of the assay: 2-AG assay: MAGL inhibitory activity by hydrolysis of 2-arachidonoylglycerol to arachidonic acid, followed by mass spectrometry. The assay is classed as biochemical. The note with it: 15 min preincubation, 30 min reaction at RT, 8 μM 2-arachidonoylglycerol. An excerpt:
Compounds of formula (I) were profiled for MAGL inhibitory activity by determining the enzymatic activity by following the hydrolysis of the natural substrate 2-arachidonoylglycerol (2-AG) resulting in arachidonic acid, which can be followed by mass spectrometry. This assay is hereinafter abbreviated “2-AG assay”.
Compounds of formula (I) were profiled for MAGL inhibitory activity by determining the enzymatic activity by following the hydrolysis of the natural substrate 2-arachidonoylglycerol (2-AG) resulting in arachidonic acid, which can be followed by mass spectrometry. This assay is hereinafter abbreviated “2-AG assay”. The 2-AG assay was carried out in 384 well polypropylene assay plates. Compound dilutions were made in 100% DMSO in a polypropylene plate in 3-fold dilution steps to give a final concentration range in the assay from 12.5 μM to […]. Compound dilutions were added to MAGL protein in assay buffer (50 mM TRIS, 1 mM EDTA, 0.01% (v/v) Tween-20, 2.5% (v/v) DMSO). After shaking, the plate was incubated for 15 min at RT. To start the reaction, 2-arachidonoylglycerol in assay buffer was added. The final concentrations in the assay was […] for MAGL protein and 8 μM 2-arachidonoylglyerol. After shaking and 30 min incubation at RT, the reaction was quenched by the addition of two assay volumes of acetonitrile containing 4 μM of d8-arachidonic acid. The amount of arachidonic acid formed was traced by an online SPE system (Agilent Rapidfire) coupled to a triple quadrupole mass spectrometer. A C18 SPE cartridge (Agilent G9205A) was used in an acetonitrile/water liquid setup. The mass spectrometer was operated in negative electrospray mode following the mass transitions 303.1→259.1 for arachidonic acid and 311.1→267.0 for d8-arachidonic acid. The activity of the compounds was calculated based on the ratio of intensities [arachidonic acid/d 8-arachidonic acid].
For orientation: pIC50 means the IC50 on a negative log10 scale, so that one unit is a factor of ten. A higher pIC50 goes with a small IC50. Consider “2-[6-[[6- (trifluoromethyl)pyrida- zin-3-y1]methyl]-2- azaspiro[3.3]heptane-2- carbonyl]-2,5- diazaspiro[3.4]octan-6- one [Example 12]”, for which the pIC50 was 7.44. Compound `CS(=O)(=O)c1ccc(C[C@@H]2CCC3(C2)CN(C(=O)N2CC4(COCC(=O)N4)C2)C3)cc1` (single isomer, unassigned) [Example 73] gave a pIC50 of 7.10. On the same count and under the same terms, with `CS(=O)(=O)c1ccc(C[C@H]2CCC3(C2)CN(C(=O)N2CC4(COCC(=O)N4)C2)C3)cc1` (single isomer, unassigned) [Example 74] the figure was 7.11; with `O=C1NC2(CO1)CN(C(=O)N1CC3(CC[C@H](Oc4cnc(C(F)(F)F)cn4)C3)C1)C2` (single isomer, unassigned) [Example 100], 8.47.

Turning to `O=C1NC2(CO1)CN(C(=O)N1CC3(CCC(Oc4cnc(C(F)(F)F)cn4)C3)C1)C2` (single isomer, unassigned) [Example 104], the pIC50 was 8.55. Same read-out and setting: with `N=[S@@](=O)(c1ccc(CC2CC3(C2)CN(C(=O)N2CC4(CCCC(=O)N4)C2)C3)cc1)C(F)(F)F` (single isomer, unassigned) [Example 284, 2-[6-[[4-(trifluoromethylsulfoni-midoyl)phenyl]methyl]-2-azaspiro[3.3]heptane-2-carbonyl]-2,5-diazaspiro[3.5]nonan-6-one] the figure was 6.92; with `N=[S@@](=O)(c1ccc(CC2CC3(C2)CN(C(=O)N2CC4(CCCC(=O)N4)C2)C3)cc1)C(F)(F)F` (single isomer, unassigned) [Example 287, 2-[6-[[4-(trifluoromethylsulfoni-midoyl)phenyl]methyl]-2-azaspiro[3.3]heptane-2-carbonyl]-2,5-diazaspiro[3.5]nonan-6-one], 6.36; with `N=S(=O)(c1cccc(CC2CC3(C2)CN(C(=O)N2CC4(CCC(=O)N4)C2)C3)c1)C(F)(F)F` (centres unmarked) [Example 1], 9.04. The same measure, in the same setting: the value for `N=S(=O)(c1ccc(CC2CC3(C2)CN(C(=O)N2CC4(CCC(=O)N4)C2)C3)cc1)C(F)(F)F` (centres unmarked) [Example 2, 2-[6-[4-(trifluoromethylsulfoni-midoyl)benzyl]-2-azaspiro[3.3]heptane-2-carbonyl]-2,5-diazaspiro[3.4]octan-6-one] was 8.67; that for `O=C1CCC2(CN(C(=O)N3CC4(CC(Cc5ccc(C(F)(F)F)nc5)C4)C3)C2)N1` [Example 3, 2-[6-[[6-(trifluoromethyl)-3-pyridyl]methyl]-2-azaspiro[3.3]heptane-2-carbonyl]-2,5-diazaspiro[3.4]octan-6-one] was 8.55; that for `O=C1CCC2(CN(C(=O)N3CC4(CC(Cc5cnc(C(F)(F)F)cn5)C4)C3)C2)N1` [Example 4, 2-[6-[[5-(trifluoromethyl)pyrazin-2-yl]methyl]-2-azaspiro[3.3]heptane-2-carbonyl]-2,5-diazaspiro[3.4]octan-6-one] was 7.95. `O=C1NC2(CO1)CN(C(=O)N1CC3(CC(Cc4cnc(C(F)(F)F)cn4)C3)C1)C2` [Example 5, 2-[6-[[5-(trifluoromethyl)pyrazin-2-y1]methyl]-2-azaspiro[3.3]heptane-2-carbonyl]-7-oxa-2,5-diazaspiro[3.4]octan-6-one]: the pIC50 is 8.94.

In turn, `O=C1CCC2(CN(C(=O)N3CC4(CC(Cc5ccc(OC(F)(F)F)cn5)C4)C3)C2)N1` [Example 6, 2-[6-[[5-(trifluoromethoxy)-2-pyridyl]methyl]-2-azaspiro[3.3]heptane-2-carbonyl]-2,5-diazaspiro[3.4]octan-6-one] gave a pIC50 of 9.33. Same read-out and setting: the value for `O=C1CCC2(CN(C(=O)N3CC4(CC(Cc5ncc(C(F)(F)F)cc5F)C4)C3)C2)N1` [Example 7, 2-[6-[[3-fluoro-5-(trifluoromethyl)-2-pyridyl]methyl]-2-azaspiro[3.3]heptane-2-carbonyl]-2,5-diazaspiro[3.4]octan-6-one] was 9.46; that for `CS(=O)(=O)c1ccc(CC2CC3(C2)CN(C(=O)N2CC4(CCC(=O)N4)C2)C3)cc1` [Example 8, 2-[6-(4-mesylbenzyl)-2-azaspiro[3.3]heptane-2-carbonyl]-2,5-diazaspiro[3.4]octan-6-one] was 7.82; that for `CS(=O)(=O)c1cccc(CC2CC3(C2)CN(C(=O)N2CC4(CCC(=O)N4)C2)C3)c1` [Example 9, 2-[6-(3-mesylbenzyl)-2-azaspiro[3.3]heptane-2-carbonyl]-2,5-diazaspiro[3.4]octan-6-one] was 7.69. Same read-out and setting: the value for `CS(=O)(=O)c1cc(F)cc(CC2CC3(C2)CN(C(=O)N2CC4(CCC(=O)N4)C2)C3)c1` [Example 10, 2-[6-(3-fluoro-5-mesyl-benzyl)-2-azaspiro[3.3]heptane-2-carbonyl]-2,5-diazaspiro[3.4]octan-6-one] was 7.61; that for `O=C1CCC2(CN(C(=O)N3CC4(CC(Cc5cnc(C(F)(F)F)nc5)C4)C3)C2)N1` [Example 11, 2-[6-[[2-(trifluoromethyl)pyrimi-din-5-y1]methyl]-2-azaspiro[3.3]heptane-2-carbonyl]-2,5-diazaspiro[3.4]octan-6-one] was 7.51; that for `CS(=O)(=O)c1ccc(CC2CC3(C2)CN(C(=O)N2CC4(COC(=O)N4)C2)C3)cc1` [Example 13, 2-[6-(4-mesylbenzyl)-2-azaspiro[3.3]heptane-2-carbonyl]-7-oxa-2,5-diazaspiro[3.4]octan-6-one] was 9.03. The same measure, in the same setting: with `O=C1NC2(CO1)CN(C(=O)N1CC3(CC(Cc4ccc(C(F)(F)F)nc4)C3)C1)C2` [Example 14, 2-[6-[[6-(trifluoromethyl)-3-pyridyl]methyl]-2-azaspiro[3.3]heptane-2-carbonyl]-7-oxa-2,5-diazaspiro[3.4]octan-6-one] the figure was 9.08; with `CS(=O)(=O)c1cc(F)ccc1CC1CC2(C1)CN(C(=O)N1CC3(COC(=O)N3)C1)C2` [Example 15, 2-[6-(4-fluoro-2-mesyl-benzyl)-2-azaspiro[3.3]heptane-2-carbonyl]-7-oxa-2,5-diazaspiro[3.4]octan-6-one], 9.52; with `N#Cc1cc(CC2CC3(C2)CN(C(=O)N2CC4(CCC(=O)N4)C2)C3)ccc1C(F)(F)F` [Example 16, 5-[[2-(6-keto-2,5-diazaspiro[3.4]octane-2-carbonyl)-2-azaspiro[3.3]heptan-6-yl]methyl]-2-(trifluoromethyl)benzoni-trile], 10.05. Compound `N#Cc1cc(CC2CC3(C2)CN(C(=O)N2CC4(CNC(=O)N4)C2)C3)ccc1C(F)(F)F` [Example 17, 5-[[2-(6-keto-2,5,7-triazaspiro[3.4]octane-2-carbonyl)-2-azaspiro[3.3]heptan-6-yl]methyl]-2-(trifluoromethyl)benzoni-trile] showed a pIC50 of 8.48.

Regarding `N#Cc1cc(CC2CC3(C2)CN(C(=O)N2CC4(COC(=O)N4)C2)C3)ccc1C(F)(F)F` [Example 18, 5-[[2-(6-keto-7-oxa-2,5-diazaspiro[3.4]octane-2-carbonyl)-2-azaspiro[3.3]heptan-6-yl]methyl]-2-(trifluoromethyl)benzoni-trile], the pIC50 is 10.70. In the case of `O=C1CCC2(CN(C(=O)N3CC4(CC(Cc5ncc(C(F)(F)F)cn5)C4)C3)C2)N1` [Example 19, 2-[6-[[5-(trifluoromethyl)pyrimi-din-2-yl]methyl]-2-azaspiro[3.3]heptane-2-carbonyl]-2,5-diazaspiro[3.4]octan-6-one], the pIC50 was 8.15. Still for that read-out and setting: with `O=C1NC2(CO1)CN(C(=O)N1CC3(CC(Cc4ccc(Cl)cn4)C3)C1)C2` [Example 20, 2-[6-[(5-chloro-2-pyridyl)methyl]-2-azaspiro[3.3]heptane-2-carbonyl]-7-oxa-2,5-diazaspiro[3.4]octan-6-one] the figure was 9.51; with `O=C1NC2(CO1)CN(C(=O)N1CC3(CC(Cc4cccc(S(=O)(=O)C(F)(F)F)c4)C3)C1)C2` [Example 21, 2-[6-(3-triflylbenzyl)-2-azaspiro[3.3]heptane-2-carbonyl]-7-oxa-2,5-diazaspiro[3.4]octan-6-one], 11.00.

The assay is the same for the next values; noted with them: unit nM.
Broadly, the IC50 is the concentration at which inhibition is half-maximal. Higher therefore signals lower potency. In turn, `O=C1NC2(CO1)CN(C(=O)N1CC3(CC(Cc4ccc(F)cc4C(F)(F)F)C3)C1)C2` [Example 22, 2-[6-[4-fluoro-2-(trifluoromethyl)benzyl]-2-azaspiro[3.3]heptane-2-carbonyl]-7-oxa-2,5-diazaspiro[3.4]octan-6-one] came in with a half-inhibitory concentration (IC50) of under 5 nM. On the same count and under the same terms, with `O=C1NC2(CO1)CN(C(=O)N1CC3(CC(Cc4ccc(F)cc4F)C3)C1)C2` [Example 23, 2-[6-(2,4-difluorobenzyl)-2-azaspiro[3.3]heptane-2-carbonyl]-7-oxa-2,5-diazaspiro[3.4]octan-6-one] the figure was under 5 nM.
